Reference: BindingDB's records for doi:10.7270/Q2G73C2Z (University of Pittsburgh, 2007)

Each compound was assayed against T1, Dual specificity protein phosphatase 6 (Rattus norvegicus, UniProt Q64346) (assay: reproducibility of MKP-3 inhibition curves – biochemical, rat DUSP6, reproducibility testing, probe assessment, dose response (AID 566)).
T1 sequence (Q64346 whole entry): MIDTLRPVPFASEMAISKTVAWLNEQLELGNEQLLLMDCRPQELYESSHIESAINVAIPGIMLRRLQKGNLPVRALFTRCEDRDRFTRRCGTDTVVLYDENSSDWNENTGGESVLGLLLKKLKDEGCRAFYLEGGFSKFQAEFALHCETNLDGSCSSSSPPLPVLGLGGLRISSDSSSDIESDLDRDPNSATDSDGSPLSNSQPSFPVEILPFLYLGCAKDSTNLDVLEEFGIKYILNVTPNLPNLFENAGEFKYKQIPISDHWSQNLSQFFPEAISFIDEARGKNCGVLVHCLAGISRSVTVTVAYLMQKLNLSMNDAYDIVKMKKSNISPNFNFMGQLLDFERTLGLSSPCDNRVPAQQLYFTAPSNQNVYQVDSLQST

SMILES | IC50 [µM]
Cc1ccc(/C=C/C2=Cc3c(sc(NC(=O)CSc4nnc(N)[nH]4)c3C#N)C(C)(C)C2)o1 [2-[(5-azanyl-1H-1,2,4-triazol-3-yl)sulfanyl]-N-[3-cyano-7,7-dimethyl-5-[(E)-2-(5-methylfuran-2-yl)ethenyl]-6H-1-benzothiophen-2-yl]ethanamide] | > 50
CC(=O)[C@@H]1[C@@H]2C(=O)N(c3ccc(F)c(Cl)c3)C(=O)[C@@H]2C2c3ccccc3C=CN21 (some centres not stated) [MLS000040594] | 47.1
CCCCCC#CCC#CCC#CCC#CCCCC(=O)O | > 50
O=C1C(=C2C(=O)c3ccccc3C2=O)Nc2ccccc21 [MLS000071738] | > 50
Cc1nc2cc(-c3cccc(F)c3)nn2c(C)c1CCC(=O)N1CCC2(CC1)OCCO2 [1-(1,4-dioxa-8-azaspiro[4.5]decan-8-yl)-3-[2-(3-fluorophenyl)-5,7-dimethyl-6-pyrazolo[1,5-a]pyrimidinyl]-1-propanone] | > 50
CCOC(=O)c1ccc2c(c1)C1C=CCC1C(C(=O)O)N2 (configuration not stated) [MLS-0025126.0001] | > 50
Cc1cccc(NC(=O)c2cc(NC(=O)C3CCCCC3C(=O)O)ccc2N2CCCCC2)c1 (configuration not stated) [2-({[3-{[(3-methylphenyl)amino]carbonyl}-4-(1-piperidinyl)phenyl]amino}carbonyl)cyclohexanecarboxylic acid] | > 50
N#Cc1c(N)sc(=S)c2c1CCN(Cc1ccccc1)C2 [3-Amino-7-benzyl-1-thioxo-5,6,7,8-tetrahydro-1H-thiopyrano[3,4-c]pyridine-4-carbonitrile] | 2.08
O=C1C=C(NCc2ccc(Cl)c(Cl)c2)CC1 [3-[(3,4-dichlorobenzyl)amino]cyclopent-2-en-1-one] | > 50
CCCCn1c(NC(=O)c2ccccc2)c(C#N)c2nc3ccccc3nc21 [SMR000060333] | 18.4
O=C(Nc1ccccc1)c1ccc2nc(-c3ccco3)c(-c3ccco3)nc2c1 [2,3-di-2-furyl-N-phenyl-6-quinoxalinecarboxamide] | > 50
CCCSc1nnc(NC(=O)c2sc3nc(-c4cccs4)ccc3c2N)s1 [3-amino-N-(5-propylsulfanyl-1,3,4-thiadiazol-2-yl)-6-thiophen-2-ylthieno[2,3-b]pyridine-2-carboxamide] | > 50
O=C(NC1(O)C(=O)c2ccccc2C1=O)c1ccccc1 [N-(2-hydroxy-1,3-dioxo-2-indenyl)benzamide] | 19.9
Cc1c(N=c2c(=O)c3ccccc3c2=O)c(=O)n(-c2ccccc2)n1C [MLS000105950] | 8.19
CC1=C(/C=C/C(C)=C/C=C/C(C)=C/C(=O)O)C(C)(C)CCC1 [ALL-TRANS-RETINOIC ACID] | > 50
CCOc1ccc(-c2cc3nc(C4CCN(C(=O)OC(C)(C)C)CC4)c(C(=O)O)cn3n2)cc1 [2-(4-ethoxyphenyl)-5-[1-[(2-methylpropan-2-yl)oxy-oxomethyl]-4-piperidinyl]-6-pyrazolo[1,5-a]pyrimidinecarboxylic acid] | > 50
CCc1ccc(NC(=O)CSc2nc3ccccc3c(=O)n2CCN2CCOCC2)cc1 [MLS000095236] | > 50
CCOc1cc(/C=C(/C#N)c2ccc(F)cc2)ccc1OCc1ccc(C(=O)O)o1 [5-[[4-[(E)-2-cyano-2-(4-fluorophenyl)ethenyl]-2-ethoxyphenoxy]methyl]furan-2-carboxylic acid] | > 50
CCn1nc(-c2cccs2)nc2c(=O)n(C)c(=O)nc1-2 [1-ethyl-6-methyl-3-thiophen-2-yl-pyrimido[5,4-e][1,2,4]triazine-5,7-dione] | 0.445

SMILES | IC50 [µM]
Cc1nc2c(C(=O)NCCC3=CCCCC3)c[nH]n2c(=O)c1Cl [6-chloro-N-(2-cyclohex-1-en-1-ylethyl)-7-hydroxy-5-methylpyrazolo[1,5-a]pyrimidine-3-carboxamide] | > 50
Cc1cc(C)n2c(SCC(=O)N3CCN(S(=O)(=O)c4ccc(Cl)cc4)CC3)nnc2n1 [1-[4-(4-chlorophenyl)sulfonyl-1-piperazinyl]-2-[(5,7-dimethyl-[1,2,4]triazolo[4,3-a]pyrimidin-3-yl)thio]ethanone] | > 50
CC(C)(C)N1C(=O)Cc2c1nc(N)c1c(N)nc(N3CCCCC3CO)c(C#N)c21 (configuration not stated) [5,6-bis(azanyl)-3-tert-butyl-8-[2-(hydroxymethyl)piperidin-1-yl]-2-oxidanylidene-1H-pyrrolo[2,3-c][2,7]naphthyridine-9-carbonitrile] | > 50
COC(=O)c1ccccc1NC(=O)CN1C(=O)C2CCCN2c2ncc(Cl)cc21 (configuration not stated) [MLS000094302] | > 50
Cc1ccc(-c2csc(NC(=O)c3ccno3)n2)cc1 [MLS000081820] | > 50
CCn1c(SCC(=O)Nc2ccc3c(c2)c2ccccc2n3CC)nnc1-c1ccco1 [MLS000050867] | > 50
Cc1cc(NC(=O)c2ccc(S(=O)(=O)N3CCCC3)cc2)nc2c1c(=O)oc1ccccc12 [MLS000091355] | > 50
[O-]/[N+](=C/c1ccc(F)cc1)c1ccccc1 [(E)-(4-fluorobenzylidene)(phenyl)azane oxide] | > 50
COCCCn1c(N)c(C(=O)NCCC(C)C)c2nc3ccccc3nc21 [MLS000041744] | > 50
CCCCCNC(=O)c1ccc2c(=O)[nH]c3c(C(=O)NCC4CCCO4)sc(=S)n3c2c1 (configuration not stated) [5-oxo-N3-(2-oxolanylmethyl)-N8-pentyl-1-sulfanylidene-4H-thiazolo[3,4-a]quinazoline-3,8-dicarboxamide] | > 50
CCn1nc(-c2ccccc2)nc2c(=O)n(C)c(=O)nc1-2 [1-Ethyl-6-methyl-3-phenyl-1H-pyrimido[5,4-e][1,2,4]triazine-5,7-dione] | 0.568
Cc1ccc(C)n1-c1cccc(C(=O)O)c1 | > 50
COc1ccc(-c2cc3nc(C4CCN(C(=O)OC(C)(C)C)CC4)c(C(=O)O)cn3n2)cc1 [2-(4-methoxyphenyl)-5-[1-[(2-methylpropan-2-yl)oxy-oxomethyl]-4-piperidinyl]-6-pyrazolo[1,5-a]pyrimidinecarboxylic acid] | > 50
CC(C)Cn1c(N)c(C(=O)COC(=O)c2cc(-c3ccco3)nc3ccccc23)c(=O)n(C)c1=O [2-(2-furanyl)-4-quinolinecarboxylic acid [2-[4-amino-1-methyl-3-(2-methylpropyl)-2,6-dioxo-5-pyrimidinyl]-2-oxoethyl] ester] | > 50
O=C1C=Cc2ccccc2C1=O [1,2-dihydronaphthalene-1,2-dione] | > 50
CCOc1ccc2noc3c2c1C(=O)c1ccccc1-3 [MLS000106837] | > 50
O=C(c1cccs1)c1no[n+]([O-])c1C(=O)c1cccs1 [(5-oxidanidyl-4-thiophen-2-ylcarbonyl-1,2,5-oxadiazol-5-ium-3-yl)-thiophen-2-yl-methanone] | > 50
COc1cc(/C=C(/C#N)c2ccc(F)cc2)ccc1OCc1ccc(C(=O)O)o1 [5-({4-[2-cyano-2-(4-fluorophenyl)vinyl]-2-methoxyphenoxy}methyl)-2-furoic acid] | > 50
Cn1ncnc2c(=O)n(C)c(=O)nc1-2 | 0.535

SMILES | IC50 [µM]
O=C(OC1CCCCC1)c1ccc2c(c1)C1C=CCC1C(C(=O)O)N2 (configuration not stated) [SMR000019385] | > 50
COc1ccc(Br)cc1C=c1sc2nc(-c3ccco3)nn2c1=O [5-[(5-bromanyl-2-methoxy-phenyl)methylidene]-2-(furan-2-yl)-[1,3]thiazolo[3,2-b][1,2,4]triazol-6-one] | > 50
[O-]/[N+](=C\c1ccncc1)c1ccccc1 | > 50
COc1ccc2noc3c2c1C(=O)c1ccccc1-3 [MLS000106874] | 22.6
Nc1c(N2CCCC2)cc(Cl)c2nonc12 [(7-chloro-5-pyrrolidino-benzofurazan-4-yl)amine] | > 50
N#Cc1c(N2CCCC2)nc(N)c2c(N)nc(N3CCCC3)cc12 [SMR000061605] | 3.43
CCCCn1c(SCC(=O)c2ccc(OC)cc2OC)nc2cc(S(N)(=O)=O)ccc21 [1-butyl-2-[2-(2,4-dimethoxyphenyl)-2-oxidanylidene-ethyl]sulfanyl-benzimidazole-5-sulfonamide] | > 50
O=C1c2ccccc2-c2onc3ccc(NCCCn4ccnc4)c1c23 [SMR000044769] | > 50
Nc1nc2c(s1)CCc1c-2cnn1-c1ccccc1 [MLS000085948] | > 50
Cc1cccc(N2CCN(C(=O)Cc3c(C(=O)O)[nH]c4ccc(Cl)cc34)CC2)c1C [5-chloranyl-3-[2-[4-(2,3-dimethylphenyl)piperazin-1-yl]-2-oxidanylidene-ethyl]-1H-indole-2-carboxylic acid] | > 50
COc1ccc(Cn2c(C)nc3c(c2=O)c2nc4ccccc4nc2n3Cc2ccco2)cc1 [MLS000079944] | > 50
FC(F)(F)c1ccc(N2CCOCC2)c(Nc2nc3ccccc3n3cnnc23)c1 [MLS000093276] | > 50
O=C(Nc1ccc2nc(-c3ccco3)c(-c3ccco3)nc2c1)N1CCCCCC1 | > 50
CC(C)Sc1nc2sc3c(c2c2nnc(SCC(=O)NCc4ccco4)n12)CCCC3 [MLS000082957] | > 50
CCCCNC(=O)c1c(N)n(CCCOC)c2nc3ccccc3nc12 [2-amino-N-butyl-1-(3-methoxypropyl)-3-pyrrolo[3,2-b]quinoxalinecarboxamide] | > 50
[O-]/[N+](=C\c1ccc(OC(F)F)cc1)c1ccccc1 [1-[4-(difluoromethoxy)phenyl]-N-phenylmethanimine oxide] | > 50
N#Cc1c(NC(=O)c2ccc(Br)o2)n(-c2ccccc2)c2nc3ccccc3nc12 [5-bromanyl-N-(3-cyano-1-phenyl-pyrrolo[3,2-b]quinoxalin-2-yl)furan-2-carboxamide] | 15.5
O=C1Nc2ccccc2SC(c2ccccc2)C1O (configuration not stated) [3-hydroxy-2-phenyl-2,3-dihydro-1,5-benzothiazepin-4(5H)-one] | > 50
COc1ccc(-n2c(NC(=O)c3ccco3)c(C#N)c3nc4ccccc4nc32)cc1 [MLS000079925] | 14.2
